Test results as given in patent US20240239775A1, “FXR REGULATOR, PREPARATION METHOD THEREFOR, PHARMACEUTICAL COMPOSITION THEREOF AND USE THEREOF” (QINGDAO RUIJI MEDICAL TECHNOLOGY CO., LTD., priority 2021, published 2024).

Key:
FXR = molecular target: T1, FXR (Homo sapiens, UniProt Q96RI1); assay: FXR antagonist screening by TR-FRET (LanthaScreen TR-FRET FXR co-activation assay kit); type: biochemical; details: TR-FRET with CDCA, geometric means of at least two independent runs
T1 construct: 5 μL of 20 nM FXR-LBD Complete Coregulator buffer G; purchased ThermoFisher PV4833
T1 sequence (Q96RI1 262-486 limits assumed): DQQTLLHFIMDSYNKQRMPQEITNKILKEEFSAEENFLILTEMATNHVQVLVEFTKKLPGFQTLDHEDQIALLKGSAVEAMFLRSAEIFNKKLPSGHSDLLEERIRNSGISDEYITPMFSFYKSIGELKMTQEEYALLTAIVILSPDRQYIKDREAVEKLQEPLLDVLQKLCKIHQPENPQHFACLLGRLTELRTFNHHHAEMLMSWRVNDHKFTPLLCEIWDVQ
How it was run: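 FXR-LBD (20 nM working solution) mixed with compound, CDCA (200 μM working solution) as agonist, Fluorescein-SRC2-2 and Tb-anti-GST antibody in Coregulator buffer G; 10 h at room temperature. Coactivator recruitment read by TR-FRET, triplicate wells.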

[1] = Table 1.1, FXR antagonistic activity
[2] = Table 1.2, FXR antagonistic activity

Row | Compound | IC50 (FXR; [1]) | melting point | IC50 (FXR; [2])
1 | Cc1c(C(=O)O)oc2ccc(S(=O)(=O)N(CCc3ccccc3)Cc3ccccc3F)cc12 [Example F27-S14, 3-methyl-5-(N-(2-fluorobenzyl)-N-phenethylsulfamoyl)benzofuran-2-carboxylic acid] | 0.1 to 10 µM | > 380 °C (dec.) | 
2 | Cc1c(C(=O)O)oc2ccc(S(=O)(=O)N(CCc3ccccc3)Cc3ccccc3Cl)cc12 [Example F27-S15, 3-methyl-5-(N-(2-chlorobenzyl)-N-phenethylsulfamoyl)benzofuran-2-carboxylic acid] | 10 to 50 µM | 156 to 157 °C | 
3 | Cc1c(C(=O)O)oc2ccc(S(=O)(=O)N(CCc3ccccc3)Cc3ccccc3Br)cc12 [Example F27-S16, 3-methyl-5-(N-(2-bromobenzyl)-N-phenethylsulfamoyl)benzofuran-2-carboxylic acid] | 10 to 50 µM | 170 to 171 °C | 
4 | Cc1ccccc1CN(CCc1ccccc1)S(=O)(=O)c1ccc2oc(C(=O)O)c(C)c2c1 [Example F27-S17, 3-methyl-5-(N-(2-methylbenzyl)-N-phenethylsulfamoyl)benzofuran-2-carboxylic acid] | 10 to 50 µM | 199 to 200 °C | 
5 | Cc1c(C(=O)O)oc2ccc(S(=O)(=O)N(CCc3ccccc3)Cc3ccccc3C(F)(F)F)cc12 [Example F27-S18, 3-methyl-5-(N-(2-trifluoromethylbenzyl)-N-phenethylsulfamoyl)benzofuran-2-carboxylic acid] | 10 to 50 µM | 138 to 139 °C | 
6 | Cc1c(C(=O)O)oc2ccc(S(=O)(=O)N(CCc3ccccc3)Cc3ccccc3[N+](=O)[O-])cc12 [Example F27-S19, 3-methyl-5-(N-(2-nitrobenzyl)-N-phenethylsulfamoyl)benzofuran-2-carboxylic acid] | 10 to 50 µM | 180 to 181 °C | 
7 | Cc1c(C(=O)O)oc2ccc(S(=O)(=O)N(CCc3ccccc3)Cc3cccc(F)c3)cc12 [Example F27-S20, 3-methyl-5-(N-(3-fluorobenzyl)-N-phenethylsulfamoyl)benzofuran-2-carboxylic acid] | 10 to 50 µM | > 380 °C (dec.) | 
8 | Cc1c(C(=O)O)oc2ccc(S(=O)(=O)N(CCc3ccccc3)Cc3cccc(Cl)c3)cc12 [Example F27-S21, 3-methyl-5-(N-(3-chlorobenzyl)-N-phenethylsulfamoyl)benzofuran-2-carboxylic acid] | 10 to 50 µM | > 380 °C (dec.) | 
9 | Cc1c(C(=O)O)oc2ccc(S(=O)(=O)N(CCc3ccccc3)Cc3cccc(Br)c3)cc12 [Example F27-S22, 3-methyl-5-(N-(3-bromobenzyl)-N-phenethylsulfamoyl)benzofuran-2-carboxylic acid] | 10 to 50 µM | > 380 °C (dec.) | 
10 | Cc1cccc(CN(CCc2ccccc2)S(=O)(=O)c2ccc3oc(C(=O)O)c(C)c3c2)c1 [Example F27-S23, 3-methyl-5-(N-(3-methylbenzyl)-N-phenethylsulfamoyl)benzofuran-2-carboxylic acid] | 10 to 50 µM | > 380 °C (dec.) | 
11 | Cc1c(C(=O)O)oc2ccc(S(=O)(=O)N(CCc3ccccc3)Cc3cccc(C(F)(F)F)c3)cc12 [Example F27-S24, 3-methyl-5-(N-(3-trifluoromethylbenzyl)-N-phenethylsulfamoyl)benzofuran-2-carboxylic acid] | 50 to 100 µM | 188 to 189 °C | 
12 | Cc1c(C(=O)O)oc2ccc(S(=O)(=O)N(CCc3ccccc3)Cc3cccc([N+](=O)[O-])c3)cc12 [Example F27-S25, 3-methyl-5-(N-(3-nitrobenzyl)-N-phenethylsulfamoyl)benzofuran-2-carboxylic acid] | 10 to 50 µM | > 380 °C (dec.) | 
13 | Cc1c(C(=O)O)oc2ccc(S(=O)(=O)N(CCc3ccccc3)Cc3cccc(-c4ccccc4)c3)cc12 [Example F27-S26, 3-methyl-5-(N-([1,1′-biphenyl]-3-ylmethyl)-N-phenethylsulfamoyl)benzofuran-2-carboxylic acid] | 10 to 50 µM | > 380 °C (dec.) | 
14 | Cc1c(C(=O)O)oc2ccc(S(=O)(=O)N(CCc3ccccc3)Cc3cccc(Oc4ccccc4)c3)cc12 [Example F27-S27, 3-methyl-5-(N-(3-phenoxybenzyl)-N-phenethylsulfamoyl)benzofuran-2-carboxylic acid] | 10 to 50 µM | > 183 °C | 
15 | Cc1c(C(=O)O)oc2ccc(S(=O)(=O)N(CCc3ccccc3)Cc3ccc(F)cc3)cc12 [Example F27-S28, 3-methyl-5-(N-(4-fluorobenzyl)-N-phenethylsulfamoyl)benzofuran-2-carboxylic acid] | 10 to 50 µM | 188 to 189 °C | 
16 | Cc1c(C(=O)O)oc2ccc(S(=O)(=O)N(CCc3ccccc3)Cc3ccc(Cl)cc3)cc12 [Example F27-S29, 3-methyl-5-(N-(4-chlorobenzyl)-N-phenethylsulfamoyl)benzofuran-2-carboxylic acid] | 10 to 50 µM | 172 to 173 °C | 
17 | Cc1ccc(CN(CCc2ccccc2)S(=O)(=O)c2ccc3oc(C(=O)O)c(C)c3c2)cc1 [Example F27-S31, 3-methyl-5-(N-(4-methylbenzyl)-N-phenethylsulfamoyl)benzofuran-2-carboxylic acid] | 10 to 50 µM | > 380 °C (dec.) | 
18 | CCOC(=O)c1sc2ccc(S(=O)(=O)N(CCc3cccc(Cl)c3)c3ccccc3N3CCN(C(=O)c4sccc4Br)CC3)cc2c1C [Example M10-171, Ethyl 5-(N-(2-(4-(3-bromothiophene-2-carbonyl)piperazin-1-yl)phenyl)-N-(3-chlorophenylethyl)sulfamoyl)-3-methylbenzothiophene-2-carboxylate] |  |  | 50 to 100 µM
19 | CCOC(=O)c1sc2ccc(S(=O)(=O)N(CCc3ccccc3Cl)c3ccccc3N3CCN(C(=O)c4sccc4Br)CC3)cc2c1C [Example M10-172, Ethyl 5-(N-(2-(4-(3-bromothiophene-2-carbonyl)piperazin-1-yl)phenyl)-N-(2-chlorophenylethyl)sulfamoyl)-3-methylbenzothiophene-2-carboxylate] |  |  | 50 to 100 µM
20 | CCOC(=O)c1sc2ccc(S(=O)(=O)N(CCc3ccccc3OC)c3ccccc3N3CCN(C(=O)c4sccc4Br)CC3)cc2c1C [Example M10-173, Ethyl 5-(N-(2-(4-(3-bromothiophene-2-carbonyl)piperazin-1-yl)phenyl)-N-(2-methoxyphenethyl)sulfamoyl)-3-methylbenzothiophene-2-carboxylate] |  |  | 50 to 100 µM
21 | CCOC(=O)c1sc2ccc(S(=O)(=O)N(CCc3ccccc3[N+](=O)[O-])c3ccccc3N3CCN(C(=O)c4sccc4Br)CC3)cc2c1C [Example M10-174] |  |  | 50 to 100 µM
22 | CCOC(=O)c1sc2ccc(S(=O)(=O)N(CCCc3ccccc3)c3ccccc3N3CCN(C(=O)c4sccc4Br)CC3)cc2c1C [Example M10-175, ethyl 5-(N-(2-(4-(3-bromothiophene-2-carbonyl)piperazin-1-yl)phenyl)-N-(3-phenylpropyl)sulfamoyl)-3-methylbenzothiophene-2-carboxylate] |  |  | 50 to 100 µM
23 | CCOC(=O)c1sc2ccc(S(=O)(=O)Nc3ccccc3N3CCN(C(=O)c4sccc4Br)CC3)cc2c1C [Example M10-176, Ethyl 5-(N-(2-(4-(3-bromothiophene-2-carbonyl)piperazin-1-yl)phenyl)sulfamoyl)-3-toluothiophene-2-carboxylate] |  |  | 50 to 100 µM
24 | CCOC(=O)c1sc2ccc(S(=O)(=O)N(CCc3ccc(OC)cc3)c3ccccc3N3CCN(C(=O)c4sccc4Br)CC3)cc2c1C [Example M10-177, Ethyl 5-(N-(2-(4-(3-bromothiophene-2-formyl)piperazin-1-yl)phenyl)-N-(4-methoxyphenethyl)sulfamoyl)3-methylbenzothiophene-2-carboxylate] |  |  | 50 to 100 µM
25 | CCOC(=O)c1c(C)c2cc(S(=O)(=O)N(CCc3ccccc3)c3ccccc3N3CCN(C(=O)c4sccc4Br)CC3)ccc2n1C [Example M10-179, Ethyl 5-(N-(2-(4-(3-bromothiophene-2-carbonyl)piperazin-1-yl)phenyl)-N-phenethylsulfamoyl)-1,3-dimethyl-1H-indole-2-carboxylate] |  |  | 50 to 100 µM
26 | CCOC(=O)c1sc2ccc(S(=O)(=O)N(CCC3CCCCC3)c3ccccc3N3CCN(C(=O)c4sccc4Br)CC3)cc2c1C [Example M10-180, Ethyl 5-(N-(2-(4-(3-bromothiophene-2-carbonyl)piperazin-1-yl)phenyl)-N-(2-cyclohexylethyl)sulfamoyl)-3-methylbenzothiophene-2-carboxylate] |  |  | 50 to 100 µM
27 | CCOC(=O)c1sc2ccc(S(=O)(=O)N(Cc3ccccc3)c3ccccc3N3CCN(C(=O)c4sccc4Br)CC3)cc2c1C [Example M10-181, Ethyl 5-(N-benzyl-N-(2-(4-(3-bromothiophene-2-carbonyl)piperazin-1-yl)phenyl)sulfamoyl)-3-methylbenzothiophene-2-carboxylate] |  |  | 50 to 100 µM
28 | CCOC(=O)c1sc2ccc(S(=O)(=O)N(C)c3ccccc3N3CCN(C(=O)c4sccc4Br)CC3)cc2c1C [Example M10-182, Ethyl 5-(N-(2-(4-(3-bromothiophene-2-carbonyl)piperazin-1-yl)phenyl)-N-methylsulfamoyl)-3-methylbenzothiophene-2-carboxylate] |  |  | 50 to 100 µM
29 | CCOC(=O)c1sc2ccc(S(=O)(=O)N(CCc3cccs3)c3ccccc3N3CCN(C(=O)c4sccc4Br)CC3)cc2c1C [Example M10-183, Ethyl 5-(N-(2-(4-(3-bromothiophene-2-carbonyl)piperazin-1-yl)phenyl)-N-(2-(thiophen-2-yl)ethyl)sulfamoyl)-3-methylbenzothiophene-2-carboxylate] |  |  | 50 to 100 µM
